Our source for the DC50 values is patent publication US12161722B2, “Bifunctional heterocyclic compound having BTK degradation function via ubiquitin proteasome pathway, and use thereof” (KOREA RESEARCH INSTITUTE OF CHEMICAL TECHNOLOGY, priority 2021, dated 2024).

The test concerns the target T1, WT BTK protein (Homo sapiens, UniProt Q06187).
T1 construct: measured for intracellular BTK protein levels by Western blotting; endogenous in cells; host or cells: TMD-8 or RAMOS cells
Briefly: BTK protein degradation assay (Western blotting), WT BTK. It is filed as cell-based. Conditions: concentration range accounting for 50% degradation of WT BTK protein, TMD-8 or RAMOS cells, 24 hours. The procedure, abridged:
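TMD-8 cells (1×10^6 cells/mL) treated 24 h with compound serial dilutions, then lysed in RIPA. Equal protein loads analysed by Western blot for BTK with GAPDH/β-actin as loading controls; activity binned by concentration giving 50% WT BTK degradation.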

Structures are written as SMILES.

T1 sequence (Q06187 whole entry): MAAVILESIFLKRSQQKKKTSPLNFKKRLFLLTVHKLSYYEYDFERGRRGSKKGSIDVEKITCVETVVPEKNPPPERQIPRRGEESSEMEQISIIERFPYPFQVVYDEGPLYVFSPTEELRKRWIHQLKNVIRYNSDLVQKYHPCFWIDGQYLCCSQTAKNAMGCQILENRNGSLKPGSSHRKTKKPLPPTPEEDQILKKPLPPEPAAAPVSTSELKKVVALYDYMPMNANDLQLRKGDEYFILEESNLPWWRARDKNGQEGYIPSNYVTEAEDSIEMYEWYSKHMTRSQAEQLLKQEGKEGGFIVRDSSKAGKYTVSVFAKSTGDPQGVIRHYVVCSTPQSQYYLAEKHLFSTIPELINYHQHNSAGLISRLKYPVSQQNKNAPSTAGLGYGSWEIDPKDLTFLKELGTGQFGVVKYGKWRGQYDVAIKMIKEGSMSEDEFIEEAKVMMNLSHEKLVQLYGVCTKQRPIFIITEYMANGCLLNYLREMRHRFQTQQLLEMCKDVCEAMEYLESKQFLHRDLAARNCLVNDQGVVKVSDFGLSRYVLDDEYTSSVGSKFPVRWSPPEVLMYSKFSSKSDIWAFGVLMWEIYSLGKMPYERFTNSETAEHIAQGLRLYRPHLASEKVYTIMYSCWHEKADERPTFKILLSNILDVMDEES

Take `Cc1cccc(C)c1Nc1nn(C)c2nc(Nc3ccc4c(c3)CN(C(=O)C3CC5(CCN(c6ccc7c(c6)C(=O)N(C6CCC(=O)NC6=O)C7=O)CC5)C3)CC4)ncc12` (stereo not drawn) [Compound 124, 5-(2-(7-((3-((2,6-dimethylphenyl)amino)-1-methyl-1H-pyrazolo[3,4-d]pyrimidin-6-yl)amino)-1,2,3,4-tetrahydroisoquinoline-2-carbonyl)-7-azaspiro[3.5]nonan-7-yl)-2-(2,6-dioxopiperidin-3-yl)isoindoline-1,3-dione]: the DC50 – broadly, the concentration giving 50% degradation – lay within 0.1 to 10 nM.

Take `Cc1cccc(C)c1Nc1nn(C)c2nc(Nc3ccc4c(c3)CN(C(=O)CC3CCN(c5ccc6c(c5)C(=O)N(C5CCC(=O)NC5=O)C6=O)CC3)CC4)ncc12` (stereo not drawn) [Compound 125, 5-(4-(2-(7-((3-((2,6-Dimethylphenyl)amino)-1-methyl-1H-pyrazolo[3,4-d]pyrimidin-6-yl)amino)-3,4-dihydroisoquinolin-2 (1H)-yl)-2-oxoethyl)piperidin-1-yl)-2-(2,6-dioxopiperidin-3-yl)isoindoline-1,3-dione]: the DC50 was 0.1 to 10 nM.

As to `Cc1cccc(C)c1Nc1nn(C)c2nc(Nc3ccc4c(c3)CN(C(=O)CCC3CCN(c5ccc6c(c5)C(=O)N(C5CCC(=O)NC5=O)C6=O)CC3)CC4)ncc12` (stereo not drawn) [Compound 126, 5-(4-(3-(7-((3-((2,6-Dimethylphenyl)amino)-1-methyl-1H-pyrazolo[3,4-d]pyrimidin-6-yl)amino)-3,4-dihydroisoquinolin-2 (1H)-yl)-3-oxopropyl)piperidin-1-yl)-2-(2,6-dioxopiperidin-3-yl)isoindoline-1,3-dione], the DC50 lay within 0.1 to 10 nM.

As to `Cc1cccc(C)c1Nc1nn(C)c2nc(Nc3ccc4c(c3)CN(C(=O)COC3CCN(c5ccc6c(c5)C(=O)N(C5CCC(=O)NC5=O)C6=O)CC3)CC4)ncc12` (stereo not drawn) [Compound 127, 5-(4-(2-(7-((3-((2,6-Dimethylphenyl)amino)-1-methyl-1H-pyrazolo[3,4-d]pyrimidin-6-yl)amino)-3,4-dihydroisoquinolin-2 (1H)-yl)-2-oxoethoxy)piperidin-1-yl)-2-(2,6-dioxopiperidin-3-yl)isoindoline-1,3-dione], the DC50 lay within 0.1 to 10 nM.

As to `Cc1cccc(C)c1Nc1nn(C)c2nc(Nc3ccc4c(c3)CN(C(=O)[C@H]3CC[C@H](OC5CCN(c6ccc7c(c6)C(=O)N(C6CCC(=O)NC6=O)C7=O)CC5)CC3)CC4)ncc12` (stereo partly drawn) [Compound 128, 5-(4-(((1r,4r)-4-(7-((3-((2,6-dimethylphenyl)amino)-1-methyl-H-pyrazolo[3,4-d]pyrimidin-6-yl)amino)-1,2,3,4-tetrahydroisoquinoline-2-carbonyl)cyclohexyl)oxy)piperidin-1-yl)-2-(2,6-dioxopiperidin-3-yl)isoindoline-1,3-dione], the 50% degradation concentration (DC50) was in the range of 0.1 to 10 nM.

Turning to `Cc1cccc(C)c1Nc1nn(C)c2nc(Nc3ccc4c(c3)CN(C(=O)CC3(O)CCN(c5ccc6c(c5)C(=O)N(C5CCC(=O)NC5=O)C6=O)CC3)CC4)ncc12` (stereo not drawn) [Compound 129, 5-(4-(2-(7-((3-((2,6-dimethylphenyl)amino)-1-methyl-1H-pyrazolo[3,4-d]pyrimidin-6-yl)amino)-3,4-dihydroisoquinolin-2 (1H)-yl)-2-oxoethyl)-4-hydroxypiperidin-1-yl)-2-(2,6-dioxopiperidin-3-yl)isoindoline-1,3-dione], the DC50 was 0.1 to 10 nM.

As for `Cc1cccc(C)c1Nc1nn(C)c2nc(Nc3ccc4c(c3)CN(CC3(O)CCN(c5ccc6c(c5)C(=O)N(C5CCC(=O)NC5=O)C6=O)CC3)CC4)ncc12` (stereo not drawn) [Compound 130, 5-(4-((7-((3-((2,6-dimethylphenyl)amino)-1-methyl-1H-pyrazolo[3,4-d]pyrimidin-6-yl)amino)-3,4-dihydroisoquinolin-2 (1H)-yl)methyl)-4-hydroxypiperidin-1-yl)-2-(2,6-dioxopiperidin-3-yl)isoindoline-1,3-dione], the half-maximal degradation concentration (DC50) fell in the range of 0.1 to 10 nM.

Turning to `Cc1cccc(C)c1Nc1nn(C)c2nc(Nc3ccc4c(c3)CN(CCC3(O)CCN(c5ccc6c(c5)C(=O)N(C5CCC(=O)NC5=O)C6=O)CC3)CC4)ncc12` (stereo not drawn) [Compound 131, 5-(4-(2-(7-((3-((2,6-Dimethylphenyl)amino)-1-methyl-1H-pyrazolo[3,4-d]pyrimidin-6-yl)amino)-3,4-dihydroisoquinolin-2 (1H)-yl)ethyl)-4-hydroxypiperidin-1-yl)-2-(2,6-dioxopiperidin-3-yl)isoindoline-1,3-dione], the DC50 was 0.1 to 10 nM.

On to `Cc1cccc(C)c1Nc1nn(C)c2nc(Nc3ccc4c(c3)CN(CC3CCN(c5ccc6c(n5)CN(C5CCC(=O)NC5=O)C6=O)CC3)CC4)ncc12` (stereo not drawn) [Compound 132, 3-(2-(4-((7-((3-((2,6-dimethylphenyl)amino)-1-methyl-1H-pyrazolo[3,4-d]pyrimidin-6-yl)amino)-3,4-dihydroisoquinolin-2 (1H)-yl)methyl)piperidin-1-yl)-5-oxo-5,7-dihydro-6H-pyrrolo[3,4-b]pyridin-6-yl)piperidin-2,6-one], for which the DC50 was in the range of 0.1 to 10 nM.

In the case of `Cc1cccc(C)c1Nc1nn(C)c2nc(Nc3ccc4c(c3)CN(CC3(O)CCN(c5ccc6c(n5)CN(C5CCC(=O)NC5=O)C6=O)CC3)CC4)ncc12` (stereo not drawn) [Compound 133, 3-(2-(4-((7-((3-((2,6-Dimethylphenyl)amino)-1-methyl-1H-pyrazolo[3,4-d]pyrimidin-6-yl)amino)-3,4-dihydroisoquinolin-2 (1H)-yl)methyl)-4-hydroxypiperidin-1-yl)-5-oxo-5,7-dihydro-6H-pyrrolo[3,4-b]pyridin-6-yl)piperidin-2,6-one], the 50% degradation concentration (DC50) fell in the range of 0.1 to 10 nM.

`Cc1cccc(C)c1Nc1nn(C)c2nc(Nc3ccc(N4CCN(CC5CCN(c6ccc7c(c6)C(=O)N(C6CCC(=O)NC6=O)C7=O)CC5)CC4)nc3)ncc12` (stereo not drawn) [Compound 134, 5-(4-((4-(5-((3-((2,6-Dimethylphenyl)amino)-1-methyl-1H-pyrazolo[3,4-d]pyrimidin-6-yl)amino)pyridin-2-yl)piperazin-1-yl)methyl)piperidin-1-yl)-2-(2,6-dioxopiperidin-3-yl)isoindoline-1,3-dione]: the DC50 lay within 0.1 to 10 nM.

For `Cc1cccc(C)c1Nc1nn(C)c2nc(Nc3ccc(N4CCC(CN5CCN(c6ccc7c(c6)C(=O)N(C6CCC(=O)NC6=O)C7=O)CC5)CC4)nc3)ncc12` (stereo not drawn) [Compound 135, 5-(4-((1-(5-((3-((2,6-Dimethylphenyl)amino)-1-methyl-1H-pyrazolo[3,4-d]pyrimidin-6-yl)amino)pyridin-2-yl)piperidin-4-yl)methyl)piperazin-1-yl)-2-(2,6-dioxopiperidin-3-yl)isoindoline-1,3-dione], the DC50 lay within 0.1 to 10 nM.

For the compound `Cc1cccc(C)c1Nc1nn(C)c2nc(Nc3cccc(N4CCN(CC5CCN(c6ccc7c(c6)C(=O)N(C6CCC(=O)NC6=O)C7=O)CC5)CC4)c3)ncc12` (stereo not drawn) [Compound 136, 5-(4-((4-(3-((3-((2,6-dimethylphenyl)amino)-1-methyl-1H-pyrazolo[3,4-d]pyrimidin-6-yl)amino)phenyl)piperazin-1-yl)methyl)piperidin-1-yl)-2-(2,6-dioxopiperidin-3-yl)isoindoline-1,3-dione], the DC50 was 0.1 to 10 nM.

For `Cc1cccc(C)c1Nc1nn(C)c2nc(Nc3ccc4c(c3)CN(CC3CCN(c5ccc(C(=O)NC6CCC(=O)NC6=O)nc5)CC3)CC4)ncc12` (stereo not drawn) [Compound 137, 5-(4-((7-((3-((2,6-Dimethylphenyl)amino)-1-methyl-1H-pyrazolo[3,4-d]pyrimidin-6-yl)amino)-3,4-dihydroisoquinolin-2 (1H)-yl)methyl)piperidin-1-yl)-N-(2,6-dioxopiperidin-3-yl)picolinamide], the DC50 lay in the range of 0.1 to 10 nM.

As to `Cc1cccc(C)c1Nc1nn(C)c2nc(Nc3ccc4c(c3)CN(C3CCN(CC5CN(c6ccc7c(c6)C(=O)N(C6CCC(=O)NC6=O)C7=O)C5)CC3)CC4)ncc12` (stereo not drawn) [Compound 138, 5-(3-((4-(7-((3-((2,6-Dimethylphenyl)amino)-1-methyl-1H-pyrazolo[3,4-d]pyrimidin-6-yl)amino)-3,4-dihydroisoquinolin-2 (1H)-yl)piperidin-1-yl)methyl)azetidin-1-yl)-2-(2,6-dioxopiperidin-3-yl)isoindoline-1,3-dione], the DC50 is 0.1 to 10 nM.

On to `Cc1cccc(C)c1Nc1nn(C)c2nc(Nc3ccc4c(c3)CN(C3CCN(CC5CCN(c6ccc7c(c6)C(=O)N(C6CCC(=O)NC6=O)C7=O)CC5)CC3)CC4)ncc12` (stereo not drawn) [Compound 139, 5-(4-((4-(7-((3-((2,6-Dimethylphenyl)amino)-1-methyl-1H-pyrazolo[3,4-d]pyrimidin-6-yl)amino)-3,4-dihydroisoquinolin-2 (1H)-yl)piperidin-1-yl)methyl)piperidin-1-yl)-2-(2,6-dioxopiperidin-3-yl)isoindoline-1,3-dione], for which the DC50 was 0.1 to 10 nM.

As for `Cc1cccc(C)c1Nc1nn(C)c2nc(Nc3ccc4c(c3)CN(C3CCN(C[C@H]5CCCN(c6ccc7c(c6)C(=O)N(C6CCC(=O)NC6=O)C7=O)C5)CC3)CC4)ncc12` (stereo partly drawn) [Compound 140, 5-((R)-3-((4-(7-((3-((2,6-dimethylphenyl)amino)-1-methyl-1H-pyrazolo[3,4-d]pyrimidin-6-yl)amino)-3,4-dihydroisoquinolin-2 (1H)-yl)piperidin-1-yl)methyl)piperidin-1-yl)-2-(2,6-dioxopiperidin-3-yl)isoindoline-1,3-dione], the DC50 was in the range of 0.1 to 10 nM.

As for `Cc1cccc(C)c1Nc1nn(C)c2nc(Nc3ccc4c(c3)CN(C3CCN(C[C@@H]5CCCN(c6ccc7c(c6)C(=O)N(C6CCC(=O)NC6=O)C7=O)C5)CC3)CC4)ncc12` (stereo partly drawn) [Compound 141, 5-((S)-3-((4-(7-((3-((2,6-dimethylphenyl)amino)-1-methyl-1H-pyrazolo[3,4-d]pyrimidin-6-yl)amino)-3,4-dihydroisoquinolin-2 (1H)-yl)piperidin-1-yl)methyl)piperidin-1-yl)-2-(2,6-dioxopiperidin-3-yl)isoindoline-1,3-dione], the DC50 lay in the range of 0.1 to 10 nM.
